Results published in ChEMBL document CHEMBL2016457, “Discovery of potent and orally bioavailable 17β-hydroxysteroid dehydrogenase type 3 inhibitors” (Bioorg Med Chem, 2012).
pIC50: −log10 of the molar value. Active and inactive are the calls of the source.

How the values were obtained:
[1] = target: T1, 17-beta-hydroxysteroid dehydrogenase type 1 (Homo sapiens) (UniProt P14061); assay: Inhibition of human recombinant 17-beta-HSD1 expressed in human HeLa cells using estrone as substrate preincubated for 30 mins prior substrate addition measured after 120 mins by spectrophotometry; format: cell-based
T1 sequence (whole entry): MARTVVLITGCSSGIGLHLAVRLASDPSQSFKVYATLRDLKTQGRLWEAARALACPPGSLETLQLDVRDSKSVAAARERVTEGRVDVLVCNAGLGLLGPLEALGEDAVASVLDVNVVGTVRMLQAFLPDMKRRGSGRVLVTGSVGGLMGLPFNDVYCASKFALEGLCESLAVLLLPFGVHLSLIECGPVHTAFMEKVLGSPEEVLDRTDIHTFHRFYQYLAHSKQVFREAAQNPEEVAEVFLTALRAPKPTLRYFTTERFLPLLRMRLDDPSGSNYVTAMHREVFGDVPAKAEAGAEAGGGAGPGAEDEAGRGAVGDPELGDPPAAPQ

[2] = target: T2, Androgen receptor (Homo sapiens) (UniProt P10275); assay: Agonist activity at human androgen receptor expressed in human HeLa cells assessed as DHT-induced response after 40 hrs by luciferase/beta-galactosidase-based reporter gene assay; format: functional, cell-based
T2 sequence (whole entry): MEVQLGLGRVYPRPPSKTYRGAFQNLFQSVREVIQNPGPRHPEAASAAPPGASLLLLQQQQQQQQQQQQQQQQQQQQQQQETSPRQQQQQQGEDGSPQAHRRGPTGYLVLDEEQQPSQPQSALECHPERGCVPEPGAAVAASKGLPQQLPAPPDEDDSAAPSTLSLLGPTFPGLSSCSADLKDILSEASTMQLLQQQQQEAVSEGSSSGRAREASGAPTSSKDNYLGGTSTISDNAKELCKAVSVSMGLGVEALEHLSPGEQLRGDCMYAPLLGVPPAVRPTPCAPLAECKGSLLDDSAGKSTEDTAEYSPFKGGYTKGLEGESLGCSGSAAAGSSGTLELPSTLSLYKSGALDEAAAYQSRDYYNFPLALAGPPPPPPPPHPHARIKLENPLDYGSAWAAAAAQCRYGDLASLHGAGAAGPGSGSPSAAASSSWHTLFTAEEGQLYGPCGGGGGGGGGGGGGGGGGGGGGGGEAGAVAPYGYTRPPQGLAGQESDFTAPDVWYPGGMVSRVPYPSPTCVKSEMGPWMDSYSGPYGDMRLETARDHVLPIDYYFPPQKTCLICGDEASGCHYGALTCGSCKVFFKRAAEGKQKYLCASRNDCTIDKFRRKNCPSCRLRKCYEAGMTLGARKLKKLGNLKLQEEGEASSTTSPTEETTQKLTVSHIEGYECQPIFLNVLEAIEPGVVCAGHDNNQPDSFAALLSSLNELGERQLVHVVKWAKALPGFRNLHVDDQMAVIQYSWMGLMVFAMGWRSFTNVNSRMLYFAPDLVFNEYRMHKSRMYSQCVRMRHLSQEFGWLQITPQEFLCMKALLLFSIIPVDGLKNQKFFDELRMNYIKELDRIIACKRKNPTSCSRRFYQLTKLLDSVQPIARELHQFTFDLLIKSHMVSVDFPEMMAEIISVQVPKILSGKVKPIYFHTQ

[3] = target: T2, Androgen receptor (Homo sapiens); assay: Antagonist activity at human androgen receptor expressed in human HeLa cells assessed as inhibition of DHT-induced response after 40 hrs by luciferase/beta-galactosidase-based reporter gene assay; format: functional, cell-based
[4] = target: T3, 17-beta-hydroxysteroid dehydrogenase type 3 (Homo sapiens, UniProt P37058); conditions: hela
T3 sequence (P37058 whole entry): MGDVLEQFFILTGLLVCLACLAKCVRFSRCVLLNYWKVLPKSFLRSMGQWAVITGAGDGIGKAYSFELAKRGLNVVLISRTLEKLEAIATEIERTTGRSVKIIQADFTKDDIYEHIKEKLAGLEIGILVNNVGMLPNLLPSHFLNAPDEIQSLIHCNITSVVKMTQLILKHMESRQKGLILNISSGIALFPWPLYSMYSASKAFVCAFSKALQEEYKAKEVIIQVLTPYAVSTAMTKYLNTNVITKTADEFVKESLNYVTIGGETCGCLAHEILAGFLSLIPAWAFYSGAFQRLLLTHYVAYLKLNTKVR
Description: (§1) Inhibition of human recombinant 17-beta-HSD3 expressed in human HeLa cells using androstenedione as substrate preincubated for 30 mins prior substrate addition measured after 120 mins by spectrophotometry

[5] = target: T4, Estrogen receptor (Homo sapiens) (UniProt P03372); assay: Agonist activity at human Estrogen receptor ERalpha expressed in human HeLa cells assessed as DHT-induced response after 40 hrs by luciferase/beta-galactosidase-based reporter gene assay; format: functional, cell-based
T4 sequence (whole entry): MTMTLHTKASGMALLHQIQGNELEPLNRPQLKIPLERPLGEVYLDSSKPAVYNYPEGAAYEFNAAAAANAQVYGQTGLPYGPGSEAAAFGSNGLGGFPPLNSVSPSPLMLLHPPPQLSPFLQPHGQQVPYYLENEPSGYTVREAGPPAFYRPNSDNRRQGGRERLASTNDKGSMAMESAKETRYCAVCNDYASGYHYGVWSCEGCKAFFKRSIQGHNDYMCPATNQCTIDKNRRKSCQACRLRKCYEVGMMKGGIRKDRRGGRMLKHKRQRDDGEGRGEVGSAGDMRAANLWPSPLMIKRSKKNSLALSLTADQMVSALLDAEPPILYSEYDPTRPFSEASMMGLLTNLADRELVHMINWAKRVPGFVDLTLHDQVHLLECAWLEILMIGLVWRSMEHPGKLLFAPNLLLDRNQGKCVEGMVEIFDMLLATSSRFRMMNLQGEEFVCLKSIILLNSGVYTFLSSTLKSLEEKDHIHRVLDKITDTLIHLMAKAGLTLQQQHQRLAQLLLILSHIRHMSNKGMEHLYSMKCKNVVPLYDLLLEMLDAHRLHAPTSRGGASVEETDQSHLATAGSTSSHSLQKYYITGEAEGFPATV

[6] = target: T4, Estrogen receptor (Homo sapiens); assay: Antagonist activity at human ERalpha receptor expressed in human HeLa cells assessed as inhibition of DHT-induced response after 40 hrs by luciferase/beta-galactosidase-based reporter gene assay; format: functional, cell-based
[7] = target: T5, Glucocorticoid receptor (Homo sapiens) (UniProt P04150); assay: Antagonist activity at human GR receptor expressed in human HeLa cells assessed as inhibition of DHT-induced response after 40 hrs by luciferase/beta-galactosidase-based reporter gene assay; format: functional, cell-based
T5 sequence (whole entry): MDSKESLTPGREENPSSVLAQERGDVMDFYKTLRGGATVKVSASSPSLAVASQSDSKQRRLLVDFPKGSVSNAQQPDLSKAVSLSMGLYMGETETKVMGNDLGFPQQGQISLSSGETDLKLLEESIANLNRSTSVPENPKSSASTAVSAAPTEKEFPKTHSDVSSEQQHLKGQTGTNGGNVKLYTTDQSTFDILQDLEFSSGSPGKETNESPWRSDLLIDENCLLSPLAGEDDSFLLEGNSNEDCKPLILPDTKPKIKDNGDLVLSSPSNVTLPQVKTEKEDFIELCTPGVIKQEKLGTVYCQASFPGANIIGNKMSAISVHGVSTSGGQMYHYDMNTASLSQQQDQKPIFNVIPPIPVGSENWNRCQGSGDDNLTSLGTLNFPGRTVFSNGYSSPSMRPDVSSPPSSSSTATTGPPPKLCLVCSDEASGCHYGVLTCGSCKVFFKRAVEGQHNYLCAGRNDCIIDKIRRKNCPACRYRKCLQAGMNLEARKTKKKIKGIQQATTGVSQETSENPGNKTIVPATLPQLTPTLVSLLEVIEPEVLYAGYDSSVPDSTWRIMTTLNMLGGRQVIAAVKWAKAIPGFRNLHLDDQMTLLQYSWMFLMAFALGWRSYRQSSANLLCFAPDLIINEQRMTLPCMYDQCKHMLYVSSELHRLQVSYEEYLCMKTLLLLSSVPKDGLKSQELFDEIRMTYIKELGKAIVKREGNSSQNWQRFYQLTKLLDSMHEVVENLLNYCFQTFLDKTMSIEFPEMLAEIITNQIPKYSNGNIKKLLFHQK

[8] = target: T5, Glucocorticoid receptor (Homo sapiens); assay: Agonist activity at human Glucocorticoid receptor expressed in human HeLa cells assessed as DHT-induced response after 40 hrs by luciferase/beta-galactosidase-based reporter gene assay; format: functional, cell-based
[9] = target: T6, 17-beta-hydroxysteroid dehydrogenase type 2 (Homo sapiens) (UniProt P37059); assay: Inhibition of human recombinant 17-beta-HSD2 expressed in human HeLa cells using estradiol as substrate preincubated for 30 mins prior substrate addition measured after 120 mins by spectrophotometry; format: cell-based
T6 sequence (whole entry): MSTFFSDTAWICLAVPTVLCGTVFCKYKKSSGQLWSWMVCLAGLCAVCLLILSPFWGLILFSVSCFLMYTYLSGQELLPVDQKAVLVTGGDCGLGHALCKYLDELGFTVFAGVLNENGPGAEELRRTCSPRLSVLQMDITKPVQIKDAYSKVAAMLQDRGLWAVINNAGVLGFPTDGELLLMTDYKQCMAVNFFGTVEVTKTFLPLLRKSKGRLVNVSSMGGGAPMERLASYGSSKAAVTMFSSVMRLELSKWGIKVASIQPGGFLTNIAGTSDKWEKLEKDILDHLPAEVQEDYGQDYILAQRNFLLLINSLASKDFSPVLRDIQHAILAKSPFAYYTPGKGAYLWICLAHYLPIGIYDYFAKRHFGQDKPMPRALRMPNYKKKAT

Rattus norvegicus = assay: Inhibition of LH-RH agonist leuprorelin-induced testosterone steroidogenesis in Sprague-Dawley rat at 20 mg/kg, po administered 1 hr prior leuprorelin-induction measured up to 240 mins by GC/MS analysis; format: functional, organism-based; design: dose 20 mg/kg
[10] = target: T3, 17-beta-hydroxysteroid dehydrogenase type 3
Description: as §1

SMILES | inhibition [1] | Activity [2] | Activity [3] | IC50 [4] | Activity [5] | Activity [6] | Activity [7] | Activity [8] | inhibition [9] | pIC50 [10] | inhibition (Rattus norvegicus)
O=C(O)c1ccc(N2C(=O)O/C(=C\c3ccc(O)c(Br)c3)C2=O)cc1 | inactive | inactive | inactive | Not Active | inactive | inactive | inactive | inactive | inactive |  | 
O=C1NC(=S)S/C1=C\c1ccc(O)c(Br)c1 | inactive | inactive | inactive | Not Active | inactive | inactive | inactive | inactive | inactive |  | 
CC(=O)O[C@H]1CC[C@@]2(C)C(=CC[C@@H]3[C@@H]2CC[C@]2(C)C(c4cccnc4)=CC[C@@H]32)C1 |  |  |  |  |  |  |  |  |  |  | Active
COc1ccc(N2C(=O)O/C(=C\c3ccc(O)c(C(=O)O)c3)C2=O)cc1 | inactive | inactive | inactive | Not Active | inactive | inactive | inactive | inactive | inactive |  | 
CN1CCC(N2C(=O)/C(=C/c3ccc(O)c(Br)c3)SC2=S)CC1 | inactive | inactive | inactive | Not Active | inactive | inactive | inactive | inactive | inactive |  | 

More lines, main results first:

inhibition [1] | Activity [2] | Activity [3] | IC50 [4] | Activity [5] | Activity [6] | Activity [7] | Activity [8] | inhibition [9] | pIC50 [10] | SMILES | inhibition (Rattus norvegicus)
inactive | inactive | inactive | Not Active | inactive | inactive | inactive | inactive | inactive |  | COc1ccc(N2C(=O)/C(=C(/c3ccc(O)c(Br)c3)C(F)(F)F)SC2=S)cc1 | 
inactive | inactive | inactive | Not Active | inactive | inactive | inactive | inactive | inactive |  | COc1ccc(N2C(=O)O/C(=C\c3ccc(O)c(CN(C)C)c3)C2=O)cc1 | 
inactive | inactive | inactive | Not Active | inactive | inactive | inactive | inactive | inactive |  | COc1ccc(N2C(=O)O/C(=C\c3ccc(O)c(C#N)c3)C2=O)cc1 | 
inactive | inactive | inactive | Not Active | inactive | inactive | inactive | inactive | inactive |  | COc1ccc(N2C(=O)O/C(=C\c3cc(Cl)c(O)c(Cl)c3)C2=O)cc1 | 
inactive | inactive | inactive | Not Active | inactive | inactive | inactive | inactive | inactive |  | NS(=O)(=O)c1ccc(N2C(=O)O/C(=C\c3ccc(O)c(Br)c3)C2=O)cc1 | 
inactive | inactive | inactive |  | inactive | inactive | inactive | inactive | inactive | 8.70 | COc1ccc(N2C(=O)/C(=C/c3ccc(O)c(F)c3)OC2=S)cc1 | 
